# Several values for one entry are separate records, joined by “and”; a condition that tells them apart may be missing. Equal values may be shown once.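 48-hour exposure; five concentrations; linearly interpolated endpoints. Here, GI50 denotes the concentration required for 50% inhibition of growth. TGI denotes the concentration required for complete inhibition of growth.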 Where a SMILES comes first, the peptide text is derived from it. [ ]: non-standard residue; d: D form. The star is where a group is joined. ξ: configuration not given here. ξF = NC(Cc1ccccc1)C(=O)O; Cbz = O=C(OCc1ccccc1)*; Aib = CC(C)(N)C(=O)O
# Experiments:
# Assay in all cases: NCI tumour cell line growth inhibition, 48 h
# ACHN renal = test system: ACHN renal
# CCRF-CEM leukemia = test system: CCRF-CEM leukemia
# HCT-15 colon = test system: HCT-15 colon
# HS 578T breast = test system: HS 578T breast
# NCI-H522 lung = test system: NCI-H522 lung
# SK-MEL-28 melanoma = test system: SK-MEL-28 melanoma
# SK-OV-3 ovarian = test system: SK-OV-3 ovarian
# UO-31 renal = test system: UO-31 renal
Compound,TGI (ACHN renal) [µM],TGI (CCRF-CEM leukemia) [µM],TGI (HCT-15 colon),TGI (HS 578T breast) [µM],TGI (NCI-H522 lung) [µM],TGI (SK-MEL-28 melanoma),TGI (SK-OV-3 ovarian) [µM],TGI (UO-31 renal),GI50 (ACHN renal) [µM],GI50 (CCRF-CEM leukemia) [µM],GI50 (HCT-15 colon) [µM],GI50 (HS 578T breast) [µM],GI50 (SK-MEL-28 melanoma) [µM],GI50 (SK-OV-3 ovarian) [µM],GI50 (UO-31 renal) [µM]
Cc1ccc(F)cc1NC(=O)O/N=C(\Cl)C(C)C,4.41,> 39.5,3.66 µM,> 65.6,2.13,38 µM,36.9,23.2 µM,–,–,–,–,–,–,–
O=C(NCCN(CCNC(=O)c1cccc(=O)n1O)CCN(CCNC(=O)c1cccc(=O)n1O)CCNC(=O)c1cccc(=O)n1O)c1cccc(=O)n1O,> 100,> 100,> 100 µM,> 100,> 100,> 100 µM,> 100,> 100 µM,–,–,–,–,–,–,–
CSc1nc(NC2CCCC2)c2cc[nH]c2n1,> 100,> 100,> 100 µM,> 100,> 100,> 100 µM,> 100,> 100 µM,–,–,–,–,–,–,–
Cc1ccc(C(=O)OC[C@H]2CC[C@@H](n3cc(N(C)C4CCCCC4)c(=O)[nH]c3=O)O2)cc1,79.3,93,93 µM,> 100,46.6,> 100 µM,> 100,62.7 µM,–,–,–,–,–,–,–
COc1cccc(N2C(=O)C3c4[nH]c5ccccc5c4C4c5ccccc5CCC4C3C2=O)c1 (centres undefined),> 10,> 10,> 10 µM,7.06,> 10,> 10 µM,> 7.28,> 10 µM,–,–,–,–,–,–,–
CSc1c(C(=O)Nc2ccccc2)c(N)nn1-c1ccccc1,–,> 100,> 100 µM,> 100,–,> 100 µM,> 100,> 100 µM,–,–,–,–,–,–,–
N=C(N)SCCON1C(=O)c2ccccc2C1=O,> 100,> 100,> 100 µM,> 100,> 100,> 100 µM,> 100,> 100 µM,–,–,–,–,–,–,–
Cc1c(-c2c(C)c3ccccc3n2S(=O)(=O)c2ccccc2)n(S(=O)(=O)c2ccccc2)c2ccccc12,> 100,> 100,> 100 µM,> 100,> 100,> 100 µM,> 100,> 100 µM,–,–,–,–,–,–,–
O=C(CSc1nc2ccccc2[nH]1)Nc1ccc(-c2nc3ccccc3s2)c(Cl)c1,57.4,> 100,> 100 µM,> 100,–,7.59 µM,12,13.7 µM,4.52,> 100,23.8,4.5,2.73,2.72,2.16
CC1=NOC2(C1)/C(=N/O)CCC/C2=N\O (centres undefined),> 100,> 100,> 100 µM,> 100,> 100,> 100 µM,> 100,> 100 µM,–,–,–,–,–,–,–
CCOC(=O)/C(=C\NCC(O)c1ccccc1)c1nc2ccccc2[nH]1 (centres undefined),28.8,33.3,74.3 µM,39.5,49,39.6 µM,> 100,94.4 µM,–,–,–,–,–,–,–
Cc1cnoc1NC1=CC(=O)C(=O)c2ccccc21,> 100,44.6,> 100 µM,> 100,> 100,> 100 µM,> 100,74.6 µM,–,–,–,–,–,–,–
CC1(C)OC2OC(COC(=O)C=[N+]=[N-])C3OC(C)(C)OC3C2O1 (centres undefined),> 100,> 100,> 100 µM,–,> 100,> 100 µM,> 100,> 100 µM,–,–,–,–,–,–,–
Cc1ccc2c(=O)cc(-c3csc4ccccc34)[nH]c2n1,12.9,1.59,13.4 µM,–,< 0.01,> 100 µM,> 32,2.14 µM,–,–,–,–,–,–,–
CCN1CC(C)Cn2c(=O)[nH]c3cc(Br)cc1c32 (centres undefined),> 100,> 100,> 100 µM,74.3,–,> 100 µM,> 100,> 100 µM,–,–,–,–,–,–,–
C=CC[C@H]1[C@@H](O[Si](C)(C)C(C)(C)C)[C@H](n2ccc(=O)[nH]c2=O)O[C@@H]1CO[Si](C)(C)C(C)(C)C,5.41,16,3.63 µM,12.2,3.93,3.01 µM,2.68,3.65 µM,–,–,–,–,–,–,–
OC(C1CCC=NN1C(O)(C(F)(F)F)C(F)(F)F)(C(F)(F)F)C(F)(F)F (centres undefined),> 10,> 10,> 10 µM,> 10,> 10,> 10 µM,> 10,–,–,–,–,–,–,–,–
Cc1c(C)c(C)c(-n2[nH]c(=O)n(C)c2=O)c(C)c1C,> 100,> 100,> 100 µM,> 100,–,> 100 µM,> 100,> 100 µM,–,–,–,–,–,–,–
COc1cc(-c2nc3cc(F)ccc3s2)ccc1O,> 100,> 100,> 100 µM,–,78.4,> 100 µM,> 100,> 100 µM,–,–,–,–,–,–,–
CC(C)(C)OC(=O)n1cc(C2CNC(=O)C23CCC(=O)N3Cc2ccccc2)c2ccccc21 (centres undefined),–,55.7,–,86.5,35,–,58.3,49 µM,–,–,–,–,–,–,–
CC(C)(NC(=O)OCc1ccccc1)C(=O)NC(Cc1ccccc1)C(=O)O (centres undefined) (Cbz-[Aib]-[ξF]-OH),–,> 100,> 100 µM,> 100,> 100,> 100 µM,> 100,> 100 µM,–,–,–,–,–,–,–
CC(C)C[C@H](NC(=O)[C@H](Cc1cccc2ccccc12)NC(=O)N1CCOCC1)B(O)O,> 100,–,0.303 µM and 1.76 µM,–,–,0.00096 µM and < 0.0329 µM,> 100,0.159 µM and 0.211 µM,–,–,0.0363,–,0.000205,0.226,–
Oc1ccc(Cl)cc1C1=N/C(=N\CN2CCN(C/N=C3/N=C(c4cc(Cl)ccc4O)CC(c4ccccc4)N3)CC2)NC(c2ccccc2)C1 (centres undefined),75.6,> 100,> 100 µM,> 100,–,> 100 µM,> 100,> 100 µM,–,–,–,–,–,–,–
CC(C)CCCC(C)[C@H]1CCC2[C@@H]3CCC4Cc5nc6c(nc5C[C@]4(C)C3CC[C@@]21C)CC1CC[C@@H]2C(C[C@@H](O)[C@@]3(C)C2C[C@@H]2OC4(CCC(C)CO4)C(C)[C@@H]23)[C@@]1(C)C6 (some centres undefined),> 100,> 100,> 100 µM,> 100,> 100,> 100 µM,> 100,–,–,–,–,–,–,–,–

# Reference: PubChem BioAssay (NCI)
